Measured values published in patent US20080188542A1, “NOVEL INDOLE POLYMORPHS” (Wyeth, priority 2007, published 2008).
≈ marks a conversion by molar mass, not a printed value.

Test: Solubility of polymorph A at room temperature (measurements taken at equilibrium)
Assay type: physicochemical
Settings: for solubility: thermodynamic from solid
Experimental: The polymorph A of [1-(4-tert-Butylbenzyl)-5-(3-methylphenyl)-1H-indol-3-yl](oxo)acetic acid of this invention can also be characterized by its solubility rate which is shown in FIG. 5. The solubility rate intrinsic dissolution was conducted in pH 7.5 phosphate buffer medium using USP apparatus 2 (paddle) at 50 rpm. The dissolution rate may be influenced by disk rotation speed and other conditions. The solubility of polymorph A of [1-(4-tert-Butylbenzyl)-5-(3- methylphenyl)-1H-indol-3-yl](oxo)acetic acid has been determined in a number of solvents and the results are listed in Table 5. The solubilities listed in Table 5 are based on measurements taken at equilibrium.

Q: With `Cc1cccc(-c2ccc3c(c2)c(C(=O)C(=O)O)cn3Cc2ccc(C(C)(C)C)cc2)c1` [Polymorph A, [1-(4-tert-Butylbenzyl)-5-(3-methylphenyl)1H-indol-3-yl](oxo)acetic acid] as the compound, how does the solubility (2% polysorbate 80/0.5% methylcellulose, aqueous with cosolvent or surfactant or cyclodextrin, 2% Polysorbate80/0.5% Methylcellulose) read?
A: 1.09 mg/mL (≈ 2.56 mM)

Q: What about the “Solubility of Polymorph A” value (Capryol 90) of the same compound?
A: 73.8 mg/g

Q: What about the “Solubility of Polymorph A” value (Cremophore EL) of the same compound?
A: 290 mg/g

Q: And the “Solubility of Polymorph A” value (Labrasol)?
A: >160 mg/g

Q: And the “Solubility of Polymorph A” value (PEG 200)?
A: >100 mg/g

Q: And the “Solubility of Polymorph A” value (PEG 400)?
A: >100 mg/g

Q: And the “Solubility of Polymorph A” value (Phosal 53 MCT)?
A: 311 mg/g

Q: And the “Solubility of Polymorph A” value (Polysorbate 80)?
A: >200 mg/g

Q: What about the solubility (organic solvent or mixture, Acetone) of the same compound?
A: 277 mg/mL (≈ 651 mM)

Q: What about the solubility (organic solvent or mixture, DMSO) of the same compound?
A: > 500 mg/mL

Q: What about the solubility (organic solvent or mixture, Ethanol) of the same compound?
A: 12.2 mg/mL (≈ 28.8 mM)

Q: And the solubility (organic solvent or mixture, Propylene Carbonate)?
A: 103 mg/mL (≈ 243 mM)

Q: And the solubility (organic solvent or mixture, Propylene Glycol)?
A: 7.1 mg/mL (≈ 16.7 mM)

Q: And the solubility (Deionized Water)?
A: 0.024 mg/mL (≈ 0.0564 mM)
